# Patent US20230278996A1, “YKL-40 INHIBITORS AND THEIR THERAPEUTIC APPLICATIONS” (Molecure S.A., priority 2022, published 2023)
# pIC50: −log10 of the molar value. Counter-ions that a name gives are not always drawn.
# Target: YKL-40 (Homo sapiens (Human), UniProt P36222)
# Experiment: YKL-40:4 assay, competitive chitin binding site AlphaScreen
# Conditions: competition with biotinylated compound 4 (20 nM), YKL-40-histag 2.5 nM
# Chain of YKL-40 (P36222 22-383): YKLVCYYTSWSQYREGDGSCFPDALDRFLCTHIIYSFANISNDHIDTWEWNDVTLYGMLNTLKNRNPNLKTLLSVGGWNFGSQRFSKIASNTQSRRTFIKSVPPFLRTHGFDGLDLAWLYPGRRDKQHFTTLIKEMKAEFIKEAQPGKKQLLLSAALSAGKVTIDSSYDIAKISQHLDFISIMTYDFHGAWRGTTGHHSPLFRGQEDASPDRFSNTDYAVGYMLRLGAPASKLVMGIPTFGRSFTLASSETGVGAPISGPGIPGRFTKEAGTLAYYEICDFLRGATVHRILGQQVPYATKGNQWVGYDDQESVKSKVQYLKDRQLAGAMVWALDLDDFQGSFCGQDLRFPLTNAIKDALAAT
row,SMILES,pIC50
1,"C[C@H]1CN(C2CCN(c3cc(C(N)=O)ccn3)CC2)[C@@H](Cc2ccc(Cl)cc2)CO1 [compound 132, 2-(4-((2S,5S)-5-(4-chlorobenzyl)-2-methylmorpholino)piperidin-1-yl)isonicotinamide 2,2,2-trifluoroacetate]",< 4.00
2,"O=C1COC[C@H](Cc2ccc(Cl)cc2)N1C1CCN(c2ccccn2)CC1 [compound 147, (S)-5-(4-chlorobenzyl)-4-(1-(pyridin-2-yl)piperidin-4-yl)morpholin-3-one hydrochloride]",< 4.00
3,"CN1C[C@H](Cc2ccc(Cl)cc2)N(C2CCN(c3ccccn3)CC2)CC12CCC2 [compound 148, (S)-7-(4-chlorobenzyl)-5-methyl-8-(1-(pyridin-2-yl)piperidin-4-yl)-5,8-diazaspiro[3.5]nonane hydrochloride]",6.00 to 7.00
4,"O=C1NCCN(C2CCN(c3ccccn3)CC2)[C@H]1Cc1ccc(Cl)cc1 [compound 149, (S)-3-(4-chlorobenzyl)-4-(1-(pyridin-2-yl)piperidin-4-yl)piperazin-2-one 2,2,2-trifluoroacetate]",< 4.00
5,"CC(C)C1OC[C@H](Cc2ccc(Cl)cc2)N1C1CCN(c2ccccn2)CC1 (stereo partly drawn) [compound 150, (4S)-4-(4-chlorobenzyl)-2-isopropyl-3-(1-(pyridin-2-yl)piperidin-4-yl)oxazolidine hydrochloride]",< 4.00
6,"CNC(=O)[C@H]1CN(C2CCN(c3ccccn3)CC2)[C@@H](Cc2ccc(Cl)cc2)CO1 [compound 154, (2R,5S)-5-(4-chlorobenzyl)-N-methyl-4-(1-(pyridin-2-yl)piperidin-4-yl)morpholine-2-carboxamide hydrochloride]",6.00 to 7.00
7,"Clc1ccc(C[C@H]2CN3CCOC[C@H]3CN2C2CCN(c3ccccn3)CC2)cc1 [compound 155, (7S,9aR)-7-(4-chlorobenzyl)-8-(1-(pyridin-2-yl)piperidin-4-yl)octahydropyrazino[2,1-c][1,4]oxazine hydrochloride]",> 7.00
8,"C[C@H]1CN(C2CCN(c3ccnc(Br)c3)CC2)[C@@H](Cc2ccc(Cl)cc2)CO1 [compound 156, (2S,5S)-4-(1-(2-bromopyridin-4-yl)piperidin-4-yl)-5-(4-chlorobenzyl)-2-methylmorpholine hydrochloride]",4.00 to 5.00
9,"C[C@H]1CN(C2CCN(c3cccc4nccn34)CC2)[C@@H](Cc2ccc(Cl)cc2)CO1 [compound 157, (2S,5S)-5-(4-chlorobenzyl)-4-(1-(imidazo[1,2-α]pyridin-5-yl)piperidin-4-yl)-2-methylmorpholine hydrochloride]",4.00 to 5.00
10,"C[C@H]1CN(c2ccc(-c3ccccn3)cc2)[C@@H](Cc2ccc(Cl)cc2)CO1 [compound 159, (2S,5S)-5-(4-chlorobenzyl)-2-methyl-4-(4-(pyridin-2-yl)phenyl)morpholine hydrochloride]",6.00 to 7.00
11,"COc1cccnc1N1CCC(N2C[C@H](C)OC[C@@H]2Cc2ccc(Cl)cc2)CC1 [compound 162, (2S,5S)-5-(4-chlorobenzyl)-4-(1-(3-methoxypyridin-2-yl)piperidin-4-yl)-2-methylmorpholine 2,2,2-trifluoroacetate]",< 4.00
12,"CC(C)c1nc(N2CCC(N3C[C@H](C)OC[C@@H]3Cc3ccc(Cl)cc3)CC2)no1 [compound 163, (2S,5S)-5-(4-chlorobenzyl)-4-(1-(5-isopropyl-1,2,4-oxadiazol-3-yl)piperidin-4-yl)-2-methylmorpholine 2,2,2-trifluoroacetate]",< 4.00
13,"C[C@H]1CN(C2CCN(c3noc(=O)[nH]3)CC2)[C@@H](Cc2ccc(Cl)cc2)CO1 [compound 165, 3-(4-((2S,5S)-5-(4-chlorobenzyl)-2-methylmorpholino)piperidin-1-yl)-1,2,4-oxadiazol-5(4H)-one 2,2,2-trifluoroacetate]",< 4.00
14,"C[C@H]1CN(C2CCN(c3nnn[nH]3)CC2)[C@@H](Cc2ccc(Cl)cc2)CO1 [compound 166, (2S,5S)-4-(1-(1H-tetrazol-5-yl)piperidin-4-yl)-5-(4-chlorobenzyl)-2-methylmorpholine 2,2,2-trifluoroacetate]",< 4.00
15,"C[C@H]1CN(C2CCN(c3ncc(C(F)(F)F)o3)CC2)[C@@H](Cc2ccc(Cl)cc2)CO1 [compound 168, (2S,5S)-5-(4-chlorobenzyl)-2-methyl-4-(1-(5-(trifluoromethyl)oxazol-2-yl)piperidin-4-yl)morpholine 2,2,2-trifluoroacetate]",< 4.00
16,"COc1ncnc(N2CCC(N3C[C@H](C)OC[C@@H]3Cc3ccc(Cl)cc3)CC2)n1 [compound 171, (2S,5S)-5-(4-chlorobenzyl)-4-(1-(4-methoxy-1,3,5-triazin-2-yl)piperidin-4-yl)-2-methylmorpholine 2,2,2-trifluoroacetate]",< 4.00
17,"C[C@H]1CN(C2CCN(c3ncnc(C#N)n3)CC2)[C@@H](Cc2ccc(Cl)cc2)CO1 [compound 173, 4-(4-((2S,5S)-5-(4-chlorobenzyl)-2-methylmorpholino)piperidin-1-yl)-1,3,5-triazine-2-carbonitrile 2,2,2-trifluoroacetate]",< 4.00
18,"C[C@H]1CN(C2CCN(c3ncnc(N(C)C)n3)CC2)[C@@H](Cc2ccc(Cl)cc2)CO1 [compound 175, 4-(4-((2S,5S)-5-(4-chlorobenzyl)-2-methylmorpholino)piperidin-1-yl)-N,N-dimethyl-1,3,5-triazin-2-amine 2,2,2-trifluoroacetate]",< 4.00

# More lines, now with the values ahead:
row,pIC50,SMILES
1,< 4.00,"C[C@H]1CN(C2CCN(c3cc(C(C)(C)O)ccn3)CC2)[C@@H](Cc2ccc(Cl)cc2)CO1 [compound 131, 2-(2-(4-((2S,5S)-5-(4-chlorobenzyl)-2-methylmorpholino)piperidin-1-yl)pyridin-4-yl)propan-2-ol 2,2,2-trifluoroacetate]"
2,< 4.00,"Cc1cccc(N2CCC(N3C[C@H](C)OC[C@@H]3Cc3ccc(Cl)cc3)CC2)n1 [compound 135, (2S,5S)-5-(4-chlorobenzyl)-2-methyl-4-(1-(6-methylpyridin-2-yl)piperidin-4-yl)morpholine hydrochloride]"
3,< 4.00,"Cc1ccc(N2CCC(N3C[C@H](C)OC[C@@H]3Cc3ccc(Cl)cc3)CC2)nc1 [compound 136, (2S,5S)-5-(4-chlorobenzyl)-2-methyl-4-(1-(5-methylpyridin-2-yl)piperidin-4-yl)morpholine hydrochloride]"
4,< 4.00,"C[C@H]1CN(C2CCN(c3cc(C(F)(F)F)ncn3)CC2)[C@@H](Cc2ccc(Cl)cc2)CO1 [compound 145, (2S,5S)-5-(4-chlorobenzyl)-2-methyl-4-(1-(6-(trifluoromethyl)pyrimidin-4-yl)piperidin-4-yl)morpholine hydrochloride]"
5,5.00 to 6.00,"C[C@H]1CN(C2CCN(c3nccc(C(F)(F)F)n3)CC2)[C@@H](Cc2ccc(Cl)cc2)CO1 [compound 146, (2S,5S)-5-(4-chlorobenzyl)-2-methyl-4-(1-(4-(trifluoromethyl)pyrimidin-2-yl)piperidin-4-yl)morpholine hydrochloride]"
6,< 4.00,"C[C@H]1CN(C2CCN(c3cncc(C(F)(F)F)n3)CC2)[C@@H](Cc2ccc(Cl)cc2)CO1 [compound 153, (2S,5S)-5-(4-chlorobenzyl)-2-methyl-4-(1-(6-(trifluoromethyl)pyrazin-2-yl)piperidin-4-yl)morpholine hydrochloride]"
7,< 4.00,"C[C@H]1CN(C2CCN(c3cnc(C(F)(F)F)cn3)CC2)[C@@H](Cc2ccc(Cl)cc2)CO1 [compound 158, (2S,5S)-5-(4-chlorobenzyl)-2-methyl-4-(1-(5-(trifluoromethyl)pyrazin-2-yl)piperidin-4-yl)morpholine hydrochloride]"
8,< 4.00,"C[C@H]1CN(C2CCN(c3ncccc3O)CC2)[C@@H](Cc2ccc(Cl)cc2)CO1 [compound 160, 2-(4-((2S,5S)-5-(4-chlorobenzyl)-2-methylmorpholino)piperidin-1-yl)pyridin-3-ol 2,2,2-trifluoroacetate]"
9,4.00 to 5.00,"C[C@H]1CN(C2CCN(c3cc(O)ccn3)CC2)[C@@H](Cc2ccc(Cl)cc2)CO1 [compound 161, 2-(4-((2S,5S)-5-(4-chlorobenzyl)-2-methylmorpholino)piperidin-1-yl)pyridin-4-ol 2,2,2-trifluoroacetate]"
10,< 4.00,"C[C@H]1CN(C2CCN(c3noc(C(F)(F)F)n3)CC2)[C@@H](Cc2ccc(Cl)cc2)CO1 [compound 164, (2S,5S)-5-(4-chlorobenzyl)-2-methyl-4-(1-(5-(trifluoromethyl)-1,2,4-oxadiazol-3-yl)piperidin-4-yl)morpholine 2,2,2-trifluoroacetate]"
11,< 4.00,"C[C@H]1CN(C2CCN(c3cc(=O)[nH]cn3)CC2)[C@@H](Cc2ccc(Cl)cc2)CO1 [compound 167, 6-(4-((2S,5S)-5-(4-chlorobenzyl)-2-methylmorpholino)piperidin-1-yl)pyrimidin-4(3H)-one 2,2,2-trifluoroacetate]"
12,< 4.00,"C[C@H]1CN(C2CCN(c3ncnc(Cl)n3)CC2)[C@@H](Cc2ccc(Cl)cc2)CO1 [compound 169, (2S,5S)-4-(1-(4-chloro-1,3,5-triazin-2-yl)piperidin-4-yl)-5-(4-chlorobenzyl)-2-methylmorpholine 2,2,2-trifluoroacetate]"
13,< 4.00,"C[C@H]1CN(C2CCN(c3ncnc(O)n3)CC2)[C@@H](Cc2ccc(Cl)cc2)CO1 [compound 170, 4-(4-((2S,5S)-5-(4-chlorobenzyl)-2-methylmorpholino)piperidin-1-yl)-1,3,5-triazin-2-ol 2,2,2-trifluoroacetate]"
14,< 4.00,"Cc1ncnc(N2CCC(N3C[C@H](C)OC[C@@H]3Cc3ccc(Cl)cc3)CC2)n1 [compound 172, (2S,5S)-5-(4-chlorobenzyl)-2-methyl-4-(1-(4-methyl-1,3,5-triazin-2-yl)piperidin-4-yl)morpholine 2,2,2-trifluoroacetate]"
15,< 4.00,"C[C@H]1CN(C2CCN(c3ncnc(N)n3)CC2)[C@@H](Cc2ccc(Cl)cc2)CO1 [compound 174, 4-(4-((2S,5S)-5-(4-chlorobenzyl)-2-methylmorpholino)piperidin-1-yl)-1,3,5-triazin-2-amine 2,2,2-trifluoroacetate]"
16,< 4.00,"C[C@H]1CN(C2CCN(c3ncns3)CC2)[C@@H](Cc2ccc(Cl)cc2)CO1 [compound 179, (2S,5S)-4-(1-(1,2,4-thiadiazol-5-yl)piperidin-4-yl)-5-(4-chlorobenzyl)-2-methylmorpholine 2,2,2-trifluoroacetate]"
